We go through five compounds from patent US20220402950A1, “SUBSTITUTED BENZIMIDAZOLES AS PAD4 INHIBITORS” (BRISTOL-MYERS SQUIBB COMPANY, priority 2018, published 2022).

The term IC50 denotes the concentration that inhibits the measured activity by half.

Read-outs that look alike come from different tables or passages of the source.

The assay addresses human PAD4 (hPAD4) (Homo sapiens, UniProt Q9UM07). Put plainly: RFMS Human PAD4 Functional Assay. The format is biochemical. As to conditions: 5 nM hPAD4, 250 μM BAEE. In short, it runs like this:
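RapidFire ESI-MS quantification, normalised to a modified-citrulline internal standard, after phenyl glyoxal (final 4 mM) derivatisation of the TCA-quenched reaction. The enzyme (10 nM) sat 30 min with compound (up to 50 μM final) before 500 μM BAEE (as added) started a 90 min, 37 °C reaction. Buffer: HEPES pH 7.5, 50 μM calcium, 5 μM TPEN.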

Where [1] appears, read: hPAD4 RFMS IC50, human PAD4, rapid-fire mass spectrum (RFMS) assay.
Setting [2] is: human PAD4, rapid-fire mass spectrum (RFMS) assay, read-out: hPAD4 RFMS IC50.

human PAD4 (hPAD4), sequence (Q9UM07 whole entry): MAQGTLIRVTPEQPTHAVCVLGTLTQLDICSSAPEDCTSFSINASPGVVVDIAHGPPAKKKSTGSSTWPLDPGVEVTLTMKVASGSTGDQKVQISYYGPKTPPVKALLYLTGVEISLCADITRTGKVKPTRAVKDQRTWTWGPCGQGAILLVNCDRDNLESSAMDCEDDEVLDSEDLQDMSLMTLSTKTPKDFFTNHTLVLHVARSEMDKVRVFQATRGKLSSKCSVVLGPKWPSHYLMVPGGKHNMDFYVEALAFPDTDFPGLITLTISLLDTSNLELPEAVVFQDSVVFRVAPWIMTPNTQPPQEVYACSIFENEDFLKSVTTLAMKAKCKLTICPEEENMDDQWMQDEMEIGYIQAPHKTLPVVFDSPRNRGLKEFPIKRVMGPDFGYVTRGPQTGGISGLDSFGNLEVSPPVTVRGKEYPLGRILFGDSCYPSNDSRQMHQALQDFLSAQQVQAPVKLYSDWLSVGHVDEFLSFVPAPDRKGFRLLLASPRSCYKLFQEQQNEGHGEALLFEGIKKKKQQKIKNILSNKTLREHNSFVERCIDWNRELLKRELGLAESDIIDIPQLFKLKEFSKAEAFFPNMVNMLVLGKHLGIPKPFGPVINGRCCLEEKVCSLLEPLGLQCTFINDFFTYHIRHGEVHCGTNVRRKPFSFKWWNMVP

With `CCNC(=O)N1CCC(c2cccc3cc(-c4nc5cc(C(=O)N6C[C@H]7CC[C@@H]6[C@@H]7N)cc(OC)c5n4C)n(CC4CC4)c23)CC1` [Example 250, 4-(2-(5-((1R,4R,7R)-7-amino-2-azabicyclo[2.2.1]heptane-2-carbonyl)-7-methoxy-1-methyl-1H-benzo[d]imidazol-2-yl)-1-(cyclopropylmethyl)-1H-indol-7-yl)-N-ethylpiperidine-1-carboxamide], 8 nM corresponded to half-maximal inhibition under setting [1] (IC50).

`COc1cc(C(=O)N2C[C@H]3CC[C@@H]2[C@@H]3N)cc2nc(-c3cc4cccc(C5CCN(C(N)=O)CC5)c4n3CC3CC3)n(C)c12` [Example 251, 4-(2-(5-((1R,4R,7R)-7-amino-2-azabicyclo[2.2.1]heptane-2-carbonyl)-7-methoxy-1-methyl-1H-benzo[d]imidazol-2-yl)-1-(cyclopropylmethyl)-1H-indol-7-yl)piperidine-1-carboxamide]: the IC50 under setting [1] came to 20 nM.

As for `COc1cc(C(=O)N2C[C@H]3CC[C@@H]2[C@@H]3N)cc2nc(-c3cc4cccc(C5CCN(C(=O)NC(C)C)CC5)c4n3CC3CC3)n(C)c12` [Example 252, 4-(2-(5-((1R,4R,7R)-7-amino-2-azabicyclo[2.2.1]heptane-2-carbonyl)-7-methoxy-1-methyl-1H-benzo[d]imidazol-2-yl)-1-(cyclopropylmethyl)-1H-indol-7-yl)-N-isopropylpiperidine-1-carboxamide], under setting [1], the IC50 amounted to 58 nM.

Regarding `COc1cc(C(=O)N2C[C@H]3CC[C@@H]2[C@@H]3N)cc2nc(-c3cc4cccc(Nc5ccccc5CO)c4n3CC3CC3)n(C)c12` [compound 182, ((1R,4R,7R)-7-amino-2-azabicyclo[2.2.1]heptan-2-yl)(2-(1-(cyclopropylmethyl)-7-((2-(hydroxymethyl)phenyl)amino)-1H-indol-2 yl)-7-methoxy-1-methyl-1H-benzo[d]imidazol-5-yl)methanone], under setting [2], the IC50 came to 191 nM.

In the case of `COc1cc(C(=O)N2C[C@H]3CC[C@@H]2[C@@H]3N)cc2nc(-c3cc4cccc(-c5ccccc5)c4n3CC3CC3)n(C)c12` [compound 186], the IC50 under setting [2] is 299 nM.
